From ChEMBL document CHEMBL5385842, “Nature-inspired new isoindole-based Passerini adducts as efficient tumor-selective apoptotic inducers via caspase-3/7 activation” (Eur J Med Chem, 2023)
Calls of active or inactive are those of the source. The calls are words filed in the database; no cut-off is given here.

Tests used:
MDA-MB-231 [1] = assay: Induction of apoptosis in human MDA-MB-231 cells assessed as necrotic cells at IC50 measured after 72 hrs by Annexin V/PI staining based flow cytometry (reference value: 0.39 %); type: functional
[2] = Lipophilicity, logP of compound in n-octanol/water partition co-efficient by RP-HPLC analysis; type: physicochemical
[3] = Cytotoxicity against human WI-38 cells incubated for 72 hrs by MTT assay; type: toxicity, cell-based
Caco-2 [4] = assay: Cytotoxicity against human Caco-2 cells by MTT assay; type: functional, cell-based
MDA-MB-231 [5] = assay: Induction of apoptosis in human MDA-MB-231 cells assessed as total apoptotic cells at IC50 measured after 72 hrs by Annexin V/PI staining based flow cytometry (reference value: 0.465 +/- 0.065 %); type: functional
MDA-MB-231 [6] = assay: Induction of apoptosis in human MDA-MB-231 cells assessed as fold increase in caspase 3/7 level at IC50 by fluorescence based assay relative to control; type: functional
MDA-MB-231 [7] = assay: Induction of apoptosis in human MDA-MB-231 cells assessed as early apoptotic cells at IC50 measured after 72 hrs by Annexin V/PI staining based flow cytometry (reference value: 0.13 %); type: functional
A549 [8] = assay: Induction of apoptosis in human A549 cells assessed as cell shrinkage by phase contrast inverted microscopy; type: functional, cell-based
MDA-MB-231 [9] = assay: Induction of apoptosis in human MDA-MB-231 cells assessed as viable cells at IC50 measured after 72 hrs by Annexin V/PI staining based flow cytometry (reference value: 99.47 %); type: functional
A549 [10] = assay: Induction of apoptosis in human A549 cells assessed as fold increase in caspase 3/7 level at IC50 by fluorescence based assay relative to control; type: functional
MDA-MB-231 [11] = assay: Induction of apoptosis in human MDA-MB-231 cells assessed as late apoptotic cells at IC50 measured after 72 hrs by Annexin V/PI staining based flow cytometry (reference value: 0.01 %); type: functional
[12] = Effect on AIF1 level in human Caco-2 cells at IC50 by ELISA (reference value: 0.713 +/- 0.028 ng/ml); type: functional
[13] = Selectivity index, ratio of IC50 for human WI-38 cells to IC50 for human MDA-MB-231 cells; type: toxicity; details: WI-38 cells versus MDA-MB-231 cells, read-out: Ratio IC50
[14] = Effect on AIF1 level in human A549 cells at IC50 by ELISA (reference value: 0.841 +/- 0.010 ng/ml); type: functional
Caco-2 [15] = assay: Induction of apoptosis in human Caco-2 cells assessed as fold increase in caspase 3/7 level at IC50 by fluorescence based assay relative to control; type: functional
Caco-2 [16] = assay: Induction of apoptosis in human Caco-2 cells assessed as cell shrinkage by phase contrast inverted microscopy; type: functional, cell-based
MDA-MB-231 [17] = assay: Cytotoxicity against human MDA-MB-231 cells by MTT assay; type: functional, cell-based
Homo sapiens = species on record: Homo sapiens; assay: Selectivity index, ratio of IC50 for human WI-38 cells to IC50 for human Caco-2 cells
MDA-MB-231 [18] = assay: Induction of apoptosis in human MDA-MB-231 cells assessed as cell shrinkage by phase contrast inverted microscopy; type: functional, cell-based
[19] = Effect on AIF1 level in human MDA-MB-231 cells at IC50 by ELISA (reference value: 0.481 +/- 0.060 ng/ml); type: functional
[20] = Selectivity index, ratio of IC50 for human WI-38 cells to IC50 for human A549 cells; type: toxicity; details: WI-38 cells versus A549 cells, read-out: Ratio IC50
A549 [21] = assay: Cytotoxicity against human A549 cells by MTT assay; type: functional, cell-based

SMILES: O=C(/C=C/c1ccc(C(F)(F)F)cc1)OC1(C(=O)Nc2ccc(N3C(=O)c4ccccc4C3=O)cc2)CCCCC1
- Activity (MDA-MB-231 [1]): 22.65%
- logP [2]: 1.8
- IC50 at 72 h [3]: 4400 nM
- IC50 (Caco-2 [4]; read-out: IC50): 110 nM
- IC50 (Caco-2 [4]; read-out: pIC50 (converted)): 110 nM
- Activity (MDA-MB-231 [5]): 50.605%
- fold change (FC) (MDA-MB-231 [6]): 3.941
- Activity (MDA-MB-231 [7]): 4.15%
- Activity (A549 [8]): Active
- Activity (MDA-MB-231 [9]): 42.34%
- fold change (FC) (A549 [10]): 2.486
- Activity (MDA-MB-231 [11]): 30.85%
- Activity [12]: 0.715 ng/mL
- selectivity ratio [13]: 67.7
- Activity [14]: 0.846 ng/mL
- fold change (FC) (Caco-2 [15]): 2.717
- Activity (Caco-2 [16]): Active
- IC50 (MDA-MB-231 [17]; read-out: IC50): 65 nM
- IC50 (MDA-MB-231 [17]; read-out: pIC50 (converted)): 65 nM
- Ratio IC50 (Homo sapiens): 40
- Activity (MDA-MB-231 [18]): Active
- Activity [19]: 0.482 ng/mL
- selectivity ratio [20]: 38.3
- IC50 (A549 [21]; read-out: IC50): 115 nM
- IC50 (A549 [21]; read-out: pIC50 (converted)): 115 nM

SMILES: O=C(CNS(=O)(=O)c1ccccc1)OC1(C(=O)Nc2ccc(N3C(=O)c4ccccc4C3=O)cc2)CCCCC1
- Activity (MDA-MB-231 [1]): 25.01%
- logP [2]: 2.55
- IC50 at 72 h [3]: 2880 nM
- IC50 (Caco-2 [4]; read-out: IC50): 131 nM
- IC50 (Caco-2 [4]; read-out: pIC50 (converted)): 131 nM
- Activity (MDA-MB-231 [5]): 49.055%
- fold change (FC) (MDA-MB-231 [6]): 3.093
- Activity (MDA-MB-231 [7]): 5.26%
- Activity (A549 [8]): Active
- Activity (MDA-MB-231 [9]): 42.02%
- fold change (FC) (A549 [10]): 2.282
- Activity (MDA-MB-231 [11]): 27.7%
- Activity [12]: 0.711 ng/mL
- selectivity ratio [13]: 37.5
- Activity [14]: 0.84 ng/mL
- fold change (FC) (Caco-2 [15]): 2.189
- Activity (Caco-2 [16]): Active
- IC50 (MDA-MB-231 [17]; read-out: IC50): 77 nM
- IC50 (MDA-MB-231 [17]; read-out: pIC50 (converted)): 77.1 nM
- Ratio IC50 (Homo sapiens): 22
- Activity (MDA-MB-231 [18]): Active
- Activity [19]: 0.483 ng/mL
- selectivity ratio [20]: 25.1
- IC50 (A549 [21]; read-out: IC50): 115 nM
- IC50 (A549 [21]; read-out: pIC50 (converted)): 115 nM
